# Source: US8129532B2, “Amino(oligo)thiophene dyes, preparation thereof, and optical methods of use” (The University of Connecticut, priority 2007, dated 2012)
# Tested on: layer V pyramidal neurons
# Experiment: Voltage-sensitive dye imaging of action potentials in intracellularly stained pyramidal neurons in brain slices
# Format: cell-based, Sprague Dawley rats
# Conditions: for dF/F at 658 nm / dF/F at 633 nm: backpropagating AP, %; for dF/F at 658 nm / voltage sensitivity compared with red dye / dF/F at 633 nm: basal dendrites 80-150 μm from soma; for dF/F at 658 nm / S/N ratio at 658 nm: laser spot 658 nm; for dF/F at 633 nm / S/N ratio at 633 nm: laser spot 633 nm
# Description: Sprague Dawley rats (P21-42) were anesthetized with isoflurane, decapitated, and the brains were removed with the head immersed in ice-cold, artificial cerebrospinal fluid (ACSF), according to an animal protocol approved by the Center for Laboratory Animal Care, University of Connecticut. Brain slices (300 μm) were cut from frontal lobes in the coronal plane. ACSF contained (in mM) 125 NaCl, 26 NaHCO3, 10 glucose, 2.3 KCl, 1.26 KH2PO4, 2 CaCl2 and 1 MgSO4, pH 7.4. Whole-cell recordings were made from visually identified layer V pyramidal neurons on the medial part of the slice. Intracellular solution contained (in mM) 135 K-gluconate, 2 MgCl2, 3 Na2-ATP, 10 Na2-phosphocreatine, 0.3 Na2-GTP and 10 Hepes (pH 7.3, adjusted with KOH). Electrical signals were amplified with Multiclamp 700A and digitized with two input boards: (1) Digidata Series 1322A (Axon Instruments) at 5 kHz, and (2) Neuroplex (RedShirtImaging) at 2.7 kHz sampling rate. Only cells with a membrane potential more hyperpolarized than −50 mV, and action potential amplitudes exceeding 80 mV (measured from the base line) were included in this study. All experiments were performed on layer 5 cortical pyramidal cells at 34° C.
# Blue dyes were stored in ethanol stock solution at −20° C. On the day of the recording blue dyes were dissolved in standard K-gluconate based intracellular solution. A loading pipette was filled with two varieties of the same intracellular solution; one with and one without dye. Dye-free solution was occupying the very tip of the pipette, while the back of the pipette lumen was microloaded with dye-rich solution. The purpose of dye-free solution in the tip of the patch pipette was to prevent dye-leak during the maneuver through brain slice tissue. VSD styryl dyes are lipophilic and bind indiscriminately and irreversibly to all membranes around the neuron of interest. Even a small amount of dye that leaks out of the pipette during the formation of the gigaohm seal, can generate strong fluorescent background. Fluorescent light emanating from surrounding tissue has a devastating effect on dendritic optical signals. Elimination of the background fluorescence is critical for dendritic voltage imaging. How much dye-free solution one should put in the tip depends on time period between the submersion of the patch pipette into the recording chamber and formation of the gigaohm seal. The faster one can perform this maneuver the less dye-free solution she needs to achieve optimal staining.
# Blue VSD were injected at room temperature for 25-60 minutes. The filling pipette was carefully pulled out (outside-out patch) and brain slices were left to incubate for 20-120 minutes at room temperature. Just before optical recordings the cells were re-patched with dye-free pipette at the physiological temperature (34° C.).
# Voltage-sensitive dye imaging was performed on a Zeiss Axioskope 2FS microscope equipped with NeuroCCD camera (RedShirtImaging). We used Zeiss 40× objective IR-Achroplan 0.80 W. The size of the square visual field captured by NeuroCCD camera was 384×384 um. In the place of the arc lamp (normally used for epi-illumination), we inserted a 200 μm fiber optic guide with a collimator. Laser beam was focused on the other side of the fiber optic guide using a microscope objective-like lens. This arrangement produced a motionless spot of laser light (˜25 μm in diameter) at the object plane. An illuminated section of the brain slice, projected onto the NeuroCCD camera, covered approximately 25 pixels when used with 40× objective lens. At this magnification, one pixel sampled a 4.8×4.8 square in the object plane. A region of interest (ROI) was brought into the laser spot using X-Y microscope platform. The laser beam was interrupted by an electro-programmable shutter (Uniblitz®). Attention was made to limit the exposure time during the recording and positioning of the neuron.
Structure (SMILES),dF/F at 658 nm [%],voltage sensitivity compared with red dye,S/N ratio at 658 nm,polarity of optical signal at 532 nm excitation,polarity of optical signal at 658 nm excitation,dF/F at 633 nm [%],S/N ratio at 633 nm
"CCN(CC)c1ccc(-c2ccc(/C=C/c3cc[n+](CCC[N+](CC)(CC)CC)cc3)s2)s1 [PY-1261, Di-2-BTEPPTEA]",7.91 ± 1.57,better sensitivity than red dye JPW-3028,5.38 ± 1.86,–,–,–,–
"CCCCN(CCCC)c1ccc(-c2ccc(/C=C/c3cc[n+](CCC[N+](CC)(CC)CC)cc3)s2)s1 [PY-1266, Di-4-BTEPPTEA]",8.32 ± 2.13,better sensitivity than red dye JPW-3028,5.22 ± 1.32,positive signals,positive signals,10.41 ± 2.80,4.77 ± 1.35
"CCCN(CCC)c1ccc(-c2ccc(/C=C/c3cc[n+](CCC[N+](CC)(CC)CC)cc3)s2)s1 [PY-1286, Di-3-BTEPPTEA]",7.64 ± 2.20,better sensitivity than red dye JPW-3028,5.13±2.31,–,–,13.67 ± 2.89,4.53 ± 0.95
